From the METLIN SMRT retention time set (Domingo-Almenara et al. 2019)

Experiment: gradient 5% acetonitrile 3 min, to 50% in 2 min, to 85% in 15 min, held 3 min, 100 µL/min
Conditions: column: Zorbax Extend-C18 2.1 x 50 mm; eluents: water / acetonitrile, 0.1% formic acid
In short: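 Over 3 months, pure standards in mixtures of ~100 molecules were run by HPLC coupled to a quadrupole time-of-flight mass spectrometer in positive and negative ionization mode. The column was a Zorbax Extend-C18 (2.1 × 50 mm, 1.8 μm) at 100 μL/min, eluted with water and acetonitrile each holding 0.1% formic acid, with 40 μL dead and 900 μL dwell volumes. Retention time was determined from adduct peaks chosen by software and checked manually.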

Row | RP-LC retention time [s] | Compound
1 | 690 | N#Cc1cccc(NC(=O)Cn2c(=O)cc(C(=O)N3CCCC3)c3ccccc32)c1
2 | 719 | O=C(NCC1CC1)C1CC(=O)N(c2ccc3c(c2)CCN3C(=O)C2CCC2)C1 (configuration not stated)
3 | 1030 | CC1CN(c2nc(-c3ccc([N+](=O)[O-])cc3)nc3ccccc23)CC(C)O1 (configuration not stated)
4 | 748 | O=C(O)c1ccc2c(c1)N(C(=O)c1ccc(F)cc1)CC2
5 | 860 | COc1ccc(-c2nsc(SCC(=O)Nc3cc(C)on3)n2)cc1
6 | 742 | COc1ccc(F)cc1S(=O)(=O)N1CCCC(Cn2c(C3CC3)nc3cccnc32)C1 (configuration not stated)
7 | 916 | CC(C)Cn1cc(S(=O)(=O)Nc2cccc(C#N)c2)c2cccnc21
8 | 768 | Cc1cc2[nH]c(C(=O)Nc3cccc(Cl)c3F)c(CN3CCOCC3)c2s1
9 | 836 | C=CCN1C(=O)C2(c3ccccc31)c1[nH]c3ccccc3c1CCN2C(C)=O (configuration not stated)
10 | 673 | O=C(Cc1cccs1)NC1CCN(c2cc(-c3ccccc3)[nH]n2)C1 (configuration not stated)
11 | 726 | COc1ccc(N2CCn3c(SCC(=O)Nc4ccccc4C(F)(F)F)nnc32)cc1
12 | 620 | O=C(Nc1ccc(-n2cnnn2)cc1)c1ccc(N2CCCC2)nn1
13 | 675 | CCc1ccc(-c2cn3cc(C(=O)N(CC)CC)ccc3n2)cc1
14 | 924 | CCCC(=O)N1CCc2c([nH]c3ccccc23)C12C(=O)Nc1ccc(Br)cc12 (configuration not stated)
15 | 903 | CCN(Cc1ccccc1)C(=O)C(=O)c1c[nH]c2ccccc12
16 | 723 | Cc1nc(-c2ccncc2)nc2c1CCC(=O)N2Cc1cccs1
17 | 1030 | O=C(Cn1cccc1-c1nc(-c2ccccc2)cs1)NCc1ccco1
18 | 917 | O=C(NCCc1csc(-c2cccc(F)c2)n1)c1ccc([N+](=O)[O-])cc1Cl
19 | 713 | CC1=C(c2ccc(F)cc2)S(=O)(=O)N=C1N1CCCN(C(=O)c2cccnc2)CC1
20 | 659 | N#Cc1ccc(C(=O)N2CCOCCNC(=O)[C@@H]3CCC[C@@H]32)cc1
21 | 923 | Cc1cccc(NC(=O)NC2CCN(c3ccc(C)c(C)c3)C2=O)c1 (configuration not stated)
22 | 963 | Cc1nc(-c2ccc(-c3noc(C(C)NC(=O)c4ccccc4)n3)cc2)cs1 (configuration not stated)
23 | 850 | O=C(C1CCCN(c2nccnc2Sc2ccccc2)C1)N1CCOCC1 (configuration not stated)
24 | 1050 | CCc1cccc(NC(=O)N2CCc3cn(CC)c4cccc(c34)C2)c1
25 | 682 | Cc1nc2c(-c3ccc(F)cc3)c(C)nn2c(C)c1CCC(=O)N1CCN(c2ccccn2)CC1

Row | RP-LC retention time [s] | Compound
26 | 793 | O=c1n(Cc2ccccc2)nc2n1CCN(S(=O)(=O)c1ccccc1)CC2
27 | 860 | COc1cc(NC(=O)c2cn(-c3cc(N4CCCC4)ncn3)cn2)cc(OC)c1
28 | 1020 | CCc1noc(NC(C)=O)c1-c1ccc(C)c(S(=O)(=O)N2CC=C(c3ccccc3)CC2)c1
29 | 749 | O=C(c1cn(-c2cc(Nc3ccccc3)ncn2)cn1)N1CCN(c2ncccn2)CC1
30 | 642 | O=C1CC(c2noc(-c3ccccc3)n2)CN1Cc1ccccc1 (configuration not stated)
31 | 763 | COC(=O)C1=CN(c2ccc(OC)c(OC)c2)c2ccccc2S1(=O)=O
32 | 1000 | O=C(c1ccc(Br)o1)N1CCC(c2cnn(-c3cccc(F)c3)c2)CC1
33 | 978 | CCOc1cc(C(=O)N2CCCC(C)(C(=O)NCc3ccc(F)cc3)C2)cc(OCC)c1OCC (configuration not stated)
34 | 862 | CCc1cccc(NC(=O)C2CCN(S(=O)(=O)c3ccc4c(c3)sc(=O)n4C)CC2)c1
35 | 702 | CCn1cc(CCN2CCN(S(=O)(=O)c3ccc4c(c3)CCC4)CC2)c2cccnc21
36 | 791 | O=C(NCc1cc(F)cc(F)c1)C1CCN(c2ccc(SCc3ccccc3)nn2)CC1
37 | 778 | O=C(Nc1ccccc1F)C1CCc2nc(N3CCOCC3)ncc2C1 (configuration not stated)
38 | 817 | Cc1cc(C)n(-c2ccc(Nc3ccc(NS(=O)(=O)c4cccc(F)c4)cc3)nn2)n1
39 | 565 | CCOc1ccc(C(=O)N2CCc3nc[nH]c3C2)cc1
40 | 661 | COc1ccc(F)cc1S(=O)(=O)N1C[C@@H]2C[C@H](NC(=O)c3ccccc3)[C@H]1C2
41 | 1090 | COc1ccc(Cl)cc1NC(=O)Nc1ccc2c(c1)CCN2S(=O)(=O)c1ccccc1
42 | 778 | O=C(NCc1ccccn1)c1ccc(-c2nc3cccnc3n(C3CCCC3)c2=O)cc1
43 | 884 | Cc1ccc2c(c1)N(C(=O)Cn1c(=O)c(CCC(=O)NCC(C)C)nc3ccccc31)CCO2
44 | 673 | O=S(=O)(NCc1cccnc1)c1cc(-c2nnc(-c3ccccc3)o2)ccc1F
45 | 737 | Cc1noc(-c2nn(C)c3c2CN(C(=O)c2cc(F)ccc2F)CC3)n1
46 | 706 | CC1CCN(C(=O)C2CCCN(c3ccnc(-c4ccc(F)cc4)n3)C2)CC1 (configuration not stated)
47 | 904 | CCc1ccc(S(=O)(=O)N2CCCN(c3ccc(=O)n(-c4ccccc4)n3)CC2)cc1
48 | 746 | COc1ccc(OC)c(NC(=O)C2(C)Oc3cccnc3NC2=O)c1 (configuration not stated)
49 | 824 | O=c1n(Cc2ccccc2Cl)nc2ccc(S(=O)(=O)N3CCOCC3)cn12
50 | 616 | CCCN1C(=O)C(C)(C(=O)NCc2ccc(C)cc2)Oc2cccnc21 (configuration not stated)

The next lines start with the molecule.

Row | Compound | RP-LC retention time [s]
51 | CCCn1nnc2cc(-c3noc(C4CC(=O)N(c5ccc(C)c(C)c5)C4)n3)ccc21 (configuration not stated) | 1020
52 | CC(=O)NCc1nc(-c2ccc3c(c2)nc(C)c(=O)n3C2CCCC2)no1 | 707
53 | Cc1ccc(NC(=O)Cn2c(-c3cnccn3)nc(C)c(C)c2=O)cc1F | 793
54 | CC(C)CC(=O)N1CCCC(c2nc(CCNC(=O)C3CCC3)cs2)C1 (configuration not stated) | 734
55 | CC1CCCCN1CCNC(=O)CCCn1c2ccccc2c2cnn(C)c(=O)c21 (configuration not stated) | 632
56 | Cc1nn(-c2ccccc2)c(C)c1S(=O)(=O)N1CCC(C(=O)NC2CCCCC2)CC1 | 912
57 | COc1ccc(-c2nc(-c3nnn(Cc4ccccc4)c3C)no2)c(OC)c1 | 990
58 | O=C(Nc1ccc2c(c1)OCO2)C1CCCN(c2ncnc3c2nc2n3CCCCC2)C1 (configuration not stated) | 759
59 | CCCNC(=O)c1cc2c(s1)N(CC1CC1)CCCC2 | 1020
60 | Cc1cnc(C2CCC2)n1CCNC(=O)c1nccn1C | 556
61 | CC(C)(C)c1ccc(O)c(CN(Cc2cc(C(C)(C)C)ccc2O)C2CCCCC2)c1 | 1020
62 | C[C@@H]1C[C@H]2[C@@H]3C[C@H](F)C4=CC(=O)C(Cl)=C[C@]4(C)[C@@]3(F)[C@@H](O)C[C@]2(C)[C@@]1(O)C(=O)CO | 847
63 | Cc1ccc(S(=O)(=O)N2CCCC(CCC(=O)NC3CCCCC3)C2)cc1 (configuration not stated) | 956
64 | CCOC(=O)CCNC(=O)N1[C@H]2CC[C@@H]1c1cnc(-c3ccccc3)nc1C2 | 794
65 | CCn1cc(CCNC(=O)c2cccnc2SC)c2cccnc21 | 647
66 | CNC(=O)[C@@H]1C[C@@H](O)CN1C1CCN(C(=O)CC2=CCCCC2)CC1 | 574
67 | O=C(NC1CCN(c2cc(-c3cccnc3)[nH]n2)CC1)C1CCCCC1 | 573
68 | CCOC(=O)c1c(S(=O)(=O)N2CCC(C(=O)Nc3ccccc3OC)CC2)c(C)n(C)c1C | 850
69 | Cc1nc2ncnn2c(N2CCCC2)c1C | 648

Row | Compound | RP-LC retention time [s]
70 | COCCNc1cc(-n2ccnc2C)n2nccc2n1 | 554
71 | Cc1noc(-c2cccc(OC3CN(C(=O)NCC(C)C)C3)c2)n1 | 808
72 | COc1ccc(NC(=O)C2CCN(c3cc(N4CCCC4)ncn3)CC2)cc1Cl | 677
73 | CC(=O)Nc1cc2c(cc1SC(C)C)n(C)c(=O)n2C | 705
74 | CCCN(Cc1ccc(OC)cc1)Cc1cc(=O)n2cc(Cl)ccc2n1 | 654
75 | CCOC(=O)c1noc2ncnc(Nc3ccccc3C)c12 | 1010
76 | Cc1oc2cc3oc(=O)c(CCC(=O)N4CCN(c5ccccn5)CC4)c(C)c3cc2c1C | 682
77 | O=C(NC1CCCC1)C1CCCN(c2ncnc3c2oc2ccccc23)C1 (configuration not stated) | 713
78 | COC1CC2C=C(C)/C=C/C=C/C(=O)NC(c3ccccc3)C/C=C/CCC(O)CC(=O)C2=C1O (configuration not stated) | 977
79 | COc1ccc(Cl)cc1NS(=O)(=O)c1cc2n(c1)CCN(CC(C)C)C2=O | 868
80 | COc1cc(OC)cc(-c2noc(CCn3nc(-c4ccc5c(c4)OCO5)ccc3=O)n2)c1 | 908
81 | Cc1ccc(-c2nnc(SCc3noc(CCC(=O)Nc4nccs4)n3)o2)cc1 | 816
82 | Cn1nc(C(=O)N2CCCCC2)c2c1CCN(C(=O)CCC(=O)N1CCC(N3CCCCC3)CC1)C2 | 586
83 | O=C(CCC1CCN(S(=O)(=O)c2ccccc2F)CC1)NC1CCS(=O)(=O)C1 (configuration not stated) | 685
84 | Ic1ccccc1CNC1C2CCN(CC2)C1C(c1ccccc1)c1ccccc1 (configuration not stated) | 982
85 | O=C(CN1CCCc2nc(C3CC3)ncc2C1=O)NCCN1CCOCC1 | 554
86 | O=C(NC1CC(=O)N(C2CC2)C1)c1cnc2ccccc2n1 (configuration not stated) | 594
87 | COC(=O)c1c(C)[nH]c(C(=O)N2CCC(CC(=O)NCCN3CCOCC3)CC2)c1C | 584
